Experimental data: patent publication US5792750A, “Materials and method for control of pests” (priority 1997, dated 1998)
No end group written: not given here.

Key:
[1] = Stability in solution of mosquito homogenate (including digestive enzymes); assay type: in vitro ADME; conditions: room temperature, two weeks
Source text: The compounds of the subject invention are white powders that are highly soluble in water. They can be synthesized on a commercial peptide synthesizer. […] Thus, these peptides are particularly attractive for the control of mosquitoes and other pests. Another advantage of the penta- and octa-peptides of the subject invention is that they are more rapidly absorbed in the insect gut. […] Thus, the novel peptides display a more rapid action, a decreased chance for insect gut enzymes to proteolyze the peptide, and high activity. The peptides were not affected by 1% trifluoroacetic acid and were routinely purified using this acid on HPLC.

[2] = test system: trypsin-like enzyme biosynthesis in the midgut; test: Inhibition of trypsin-like enzyme biosynthesis after injection of peptides into ligated abdomens of blood-fed female mosquitoes; assay type: in vivo, Aedes aegypti; conditions: for biological activity: against Aedes aegypti, compared with TMOF or among the analogs; for ability to inhibit trypsin-like enzyme biosynthesis: ligated abdomens of female A. aegypti, 24 hours after injection

YDPAP [Peptide P1, H2 N--YDPAP--COOH]
activity after standing in mosquito homogenate [1]: without loss of activity
biological activity [2]: even greater activity than the octa-peptideP4
ability to inhibit trypsin-like enzyme biosynthesis [2]: demonstrated an ability to inhibit trypsin-like enzyme biosynthesis

YDPAPPPPPP [TMOF, reference compound]
ability to inhibit trypsin-like enzyme biosynthesis [2]: demonstrated an ability to inhibit trypsin-like enzyme biosynthesis

YDPAPPPP [Peptide P4, H2 N--YDPAP4 --COOH]
biological activity [2]: retains biological activity
ability to inhibit trypsin-like enzyme biosynthesis [2]: demonstrated an ability to inhibit trypsin-like enzyme biosynthesis
